In patent publication US20240217957A1, “HETEROCYCLIC COMPOUND AND USE THEREOF” (TAKEDA PHARMACEUTICAL COMPANY LIMITED, priority 2022, published 2024):

biological target: T1, human OX2 receptor (Homo sapiens, UniProt O43614); assay: Measurement of orexin type 2 receptor agonist activity (calcium fluorescence, Fluo-4 AM, FDSS); type: cell-based; conditions: compound at 3 μM; CHO cells forcibly expressing human OX2 receptor; DMSO = 0%, 10 nM orexin A (human) = 100%
T1 construct: expressed in transfected cells
T1 sequence (O43614 1-444): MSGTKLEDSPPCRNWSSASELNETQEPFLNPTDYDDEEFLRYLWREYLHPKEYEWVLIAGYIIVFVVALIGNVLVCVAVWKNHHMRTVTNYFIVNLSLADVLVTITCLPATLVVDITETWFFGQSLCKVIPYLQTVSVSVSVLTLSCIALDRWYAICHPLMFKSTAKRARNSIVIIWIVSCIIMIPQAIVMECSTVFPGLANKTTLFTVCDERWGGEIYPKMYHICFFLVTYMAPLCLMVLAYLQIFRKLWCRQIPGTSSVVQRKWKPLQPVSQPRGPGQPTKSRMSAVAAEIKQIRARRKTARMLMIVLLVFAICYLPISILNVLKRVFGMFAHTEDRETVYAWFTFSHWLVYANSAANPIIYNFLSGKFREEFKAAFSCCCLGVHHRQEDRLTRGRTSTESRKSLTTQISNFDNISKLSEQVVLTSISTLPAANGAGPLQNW
In short: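 CHO-K1 cells stably expressing human OX2 receptor (residues 1-444) loaded with Fluo-4 AM in HBSS/20 mM HEPES/0.1% BSA with probenecid, 30 min at 37° C. then 30 min at room temperature. After compound addition, calcium fluorescence read for 1 min 40 s; activity (%) scaled to DMSO (0%) and 10 nM orexin A (100%).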

Point of comparison: CCS(=O)(=O)N[C@@H]1CN(C2=NOC(COC)(c3ncc(F)cc3-c3c(F)cccc3F)C2)C[C@@H]1F (stereo partly drawn) [Example 132, N-[(3R,4S)-1-{5-[3-(2,6-difluorophenyl)-5-fluoropyridin-2-yl]-5-(methoxymethyl)-4,5-dihydro-1,2-oxazol-3-yl}-4-fluoropyrrolidin-3-yl]ethanesulfonamide], “OX2R agonist activity (3 μM, %)” value 110%. Against it:
- CCC1(c2ncc(F)cc2-c2c(F)cccc2F)CC(N2C[C@@H](NS(C)(=O)=O)C(F)(F)C2)=NO1 (stereo partly drawn) [Example 130, N-[(3R)-1-{5-[3-(2,6-difluorophenyl)-5-fluoropyridin-2-yl]-5-ethyl-4,5-dihydro-1,2-oxazol-3-yl}-4,4-difluoropyrrolidin-3-yl]methanesulfonamide] — lower, 104%
- COCC1(c2ncc(F)cc2-c2c(F)cccc2F)CC(N2C[C@@H](NS(C)(=O)=O)C(F)(F)C2)=NO1 (stereo partly drawn) [Example 131, N-[(3R)-1-{5-[3-(2,6-difluorophenyl)-5-fluoropyridin-2-yl]-5-(methoxymethyl)-4,5-dihydro-1,2-oxazol-3-yl}-4,4-difluoropyrrolidin-3-yl]methanesulfonamide] — higher, 112%
- CCS(=O)(=O)N[C@@H]1CN(C2=NOC(c3ncc(Cl)cc3-c3c(F)cccc3F)C2)C[C@@H]1F (stereo partly drawn) [Example 133, N-[(3R,4S)-1-{5-[5-chloro-3-(2,6-difluorophenyl)pyridin-2-yl]-4,5-dihydro-1,2-oxazol-3-yl}-4-fluoropyrrolidin-3-yl]ethanesulfonamide] — lower, 107%
- Cc1ncc(C2CC(N3C[C@@H](NS(C)(=O)=O)C(F)(F)C3)=NO2)c(-c2c(F)cccc2F)n1 (stereo partly drawn) [Example 134, N-[(3R)-1-{5-[4-(2,6-difluorophenyl)-2-methylpyrimidin-5-yl]-4,5-dihydro-1,2-oxazol-3-yl}-4,4-difluoropyrrolidin-3-yl]methanesulfonamide] — lower, 103%
- CS(=O)(=O)N[C@@H]1CN(C2=NOC(CO)(c3ncc(C(F)F)cc3-c3c(F)cccc3F)C2)CC1(F)F (stereo partly drawn) [Example 135, N-[(3R)-1-{5-[5-(difluoromethyl)-3-(2,6-difluorophenyl)pyridin-2-yl]-5-(hydroxymethyl)-4,5-dihydro-1,2-oxazol-3-yl}-4,4-difluoropyrrolidin-3-yl]methanesulfonamide] — higher, 115%
- CS(=O)(=O)N[C@@H]1CN(C2=NOC(c3c(F)ccc(F)c3-c3c(F)cccc3F)C2)CC1(F)F (stereo partly drawn) [Example 136, N-{(3R)-4,4-difluoro-1-[5-(2′,3,6,6′-tetrafluoro[1,1'-biphenyl]-2-yl)-4,5-dihydro-1,2-oxazol-3-yl]pyrrolidin-3-yl}methanesulfonamide] — higher, 114%
- CS(=O)(=O)N[C@@H]1CN(C2=NOC(c3ccc(F)c(F)c3-c3c(F)cccc3F)C2)C[C@@H]1F (stereo partly drawn) [Example 137, N-{(3R,4S)-4-fluoro-1-[5-(2′,5,6,6′-tetrafluoro[1,1′-biphenyl]-2-yl)-4,5-dihydro-1,2-oxazol-3-yl]pyrrolidin-3-yl}methanesulfonamide] — lower, 102%
- CS(=O)(=O)N[C@@H]1CN(C2=NOC(c3c(F)cc(F)cc3-c3ncc(F)cc3F)C2)CC1(F)F (stereo partly drawn) [Example 138, N-[(3R)-1-{5-[2-(3,5-difluoropyridin-2-yl)-4,6-difluorophenyl]-4,5-dihydro-1,2-oxazol-3-yl}-4,4-difluoropyrrolidin-3-yl]methanesulfonamide] — lower, 105%
- CS(=O)(=O)N[C@@H]1CN(C2=NOC(c3c(F)cc(F)cc3-c3ncc(F)cc3F)C2)C[C@@H]1F (stereo partly drawn) [Example 139, N-[(3R,4S)-1-{5-[2-(3,5-difluoropyridin-2-yl)-4,6-difluorophenyl]-4,5-dihydro-1,2-oxazol-3-yl}-4-fluoropyrrolidin-3-yl]methanesulfonamide] — lower, 94%
- CS(=O)(=O)N[C@@H]1CN(C2=NOC(c3ccc(F)c(F)c3-c3c(F)cccc3F)C2)CC1(F)F (stereo partly drawn) [Example 140, N-{(3R)-4,4-difluoro-1-[5-(2′,5,6,6′-tetrafluoro[1,1′-biphenyl]-2-yl)-4,5-dihydro-1,2-oxazol-3-yl]pyrrolidin-3-yl}methanesulfonamide] — lower, 89%
- CS(=O)(=O)N[C@@H]1CN(C2=NOC(c3c(F)cccc3-c3c(F)cccc3F)C2)C[C@@H]1F (stereo partly drawn) [Example 141, N-{(3R,4S)-4-fluoro-1-[5-(2′,3,6′-trifluoro[1,1′-biphenyl]-2-yl)-4,5-dihydro-1,2-oxazol-3-yl]pyrrolidin-3-yl}methanesulfonamide] — lower, 97%
- CS(=O)(=O)N[C@@H]1CN(C2=NOC(CO)(c3ncc(Cl)cc3-c3c(F)cccc3F)C2)CC1(F)F (stereo partly drawn) [Example 142, N-[(3R)-1-{5-[5-chloro-3-(2,6-difluorophenyl)pyridin-2-yl]-5-(hydroxymethyl)-4,5-dihydro-1,2-oxazol-3-yl}-4,4-difluoropyrrolidin-3-yl]methanesulfonamide] — lower, 102%
- CCS(=O)(=O)N[C@@H]1CN(C2=NOC(c3ncc(Cl)cc3-c3c(F)cccc3F)C2)CC1(F)F (stereo partly drawn) [Example 143, N-[(3R)-1-{5-[5-chloro-3-(2,6-difluorophenyl)pyridin-2-yl]-4,5-dihydro-1,2-oxazol-3-yl}-4,4-difluoropyrrolidin-3-yl]ethanesulfonamide] — lower, 109%
- CS(=O)(=O)N[C@@H]1CN(C2=NOC(c3c(F)cc(F)cc3-c3c(F)cccc3F)C2)C[C@@H]1F (stereo partly drawn) [Example 144, N-{(3R,4S)-4-fluoro-1-[5-(2′,3,5,6′-tetrafluoro[1,1′-biphenyl]-2-yl)-4,5-dihydro-1,2-oxazol-3-yl]pyrrolidin-3-yl}methanesulfonamide] — lower, 98%
- Cc1cc(F)c(C2CC(N3C[C@@H](NS(C)(=O)=O)C(F)(F)C3)=NO2)c(-c2c(F)cc(F)cc2F)c1 (stereo partly drawn) [Example 145, N-{(3R)-4,4-difluoro-1-[5-(2′,3,4′,6′-tetrafluoro-5-methyl[1,1′-biphenyl]-2-yl)-4,5-dihydro-1,2-oxazol-3-yl]pyrrolidin-3-yl}methanesulfonamide] — lower, 105%
- Cc1cc(F)c(C2CC(N3C[C@@H](NS(C)(=O)=O)C(F)(F)C3)=NO2)c(-c2c(F)cccc2F)c1 (stereo partly drawn) [Example 146, N-{(3R)-4,4-difluoro-1-[5-(2′,3,6′-trifluoro-5-methyl[1,1′-biphenyl]-2-yl)-4,5-dihydro-1,2-oxazol-3-yl]pyrrolidin-3-yl}methanesulfonamide] — lower, 102%
- CS(=O)(=O)N[C@@H]1CN(C2=NOC(CF)(c3ncc(F)cc3-c3c(F)cc(F)cc3F)C2)CC1(F)F (stereo partly drawn) [Example 147, N-[(3R)-4,4-difluoro-1-{5-(fluoromethyl)-5-[5-fluoro-3-(2,4,6-trifluorophenyl)pyridin-2-yl]-4,5-dihydro-1,2-oxazol-3-yl}pyrrolidin-3-yl]methanesulfonamide] — lower, 98%
- O=S(=O)(CF)N[C@@H]1CN(C2=NOC(c3ncc(Cl)cc3-c3c(F)cccc3F)C2)CC1(F)F (stereo partly drawn) [Example 148, N-[(3R)-1-{5-[5-chloro-3-(2,6-difluorophenyl)pyridin-2-yl]-4,5-dihydro-1,2-oxazol-3-yl}-4,4-difluoropyrrolidin-3-yl]-1-fluoromethanesulfonamide] — lower, 98%
